# Results as given in patent publication US10870652B2, “Compounds and methods for modulating bruton's tyrosine kinase” (CORVUS PHARMACEUTICALS, INC., priority 2016, dated 2020).
# pIC50: −log10 of the molar value.
# What was measured:
# Assay type in all cases: biochemical
# [1] = biological target: T1, ITK (Homo sapiens, UniProt Q08881); assay: ITK IC50 kinase inhibition assay
# T1 sequence (Q08881 1-620): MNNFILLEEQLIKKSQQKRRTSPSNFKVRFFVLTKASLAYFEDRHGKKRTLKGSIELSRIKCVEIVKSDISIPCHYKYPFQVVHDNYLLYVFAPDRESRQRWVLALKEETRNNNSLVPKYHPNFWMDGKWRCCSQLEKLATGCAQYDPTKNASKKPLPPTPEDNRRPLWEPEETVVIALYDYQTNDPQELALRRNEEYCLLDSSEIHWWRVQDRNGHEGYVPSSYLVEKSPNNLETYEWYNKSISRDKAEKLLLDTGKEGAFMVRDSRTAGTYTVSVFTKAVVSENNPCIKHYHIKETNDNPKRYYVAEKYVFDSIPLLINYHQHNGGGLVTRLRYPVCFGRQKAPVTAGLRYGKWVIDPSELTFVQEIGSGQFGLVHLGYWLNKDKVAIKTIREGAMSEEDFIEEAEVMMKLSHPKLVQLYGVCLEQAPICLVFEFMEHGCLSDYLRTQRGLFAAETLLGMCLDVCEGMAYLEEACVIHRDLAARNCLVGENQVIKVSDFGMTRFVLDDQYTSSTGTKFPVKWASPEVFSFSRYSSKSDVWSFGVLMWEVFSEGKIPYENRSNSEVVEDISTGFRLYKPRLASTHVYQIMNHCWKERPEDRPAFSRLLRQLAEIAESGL
# [2] = biological target: T2, JAK3 (Homo sapiens, UniProt P52333); assay: JAK3 IC50 kinase inhibition assay
# T2 sequence (P52333 1-1124): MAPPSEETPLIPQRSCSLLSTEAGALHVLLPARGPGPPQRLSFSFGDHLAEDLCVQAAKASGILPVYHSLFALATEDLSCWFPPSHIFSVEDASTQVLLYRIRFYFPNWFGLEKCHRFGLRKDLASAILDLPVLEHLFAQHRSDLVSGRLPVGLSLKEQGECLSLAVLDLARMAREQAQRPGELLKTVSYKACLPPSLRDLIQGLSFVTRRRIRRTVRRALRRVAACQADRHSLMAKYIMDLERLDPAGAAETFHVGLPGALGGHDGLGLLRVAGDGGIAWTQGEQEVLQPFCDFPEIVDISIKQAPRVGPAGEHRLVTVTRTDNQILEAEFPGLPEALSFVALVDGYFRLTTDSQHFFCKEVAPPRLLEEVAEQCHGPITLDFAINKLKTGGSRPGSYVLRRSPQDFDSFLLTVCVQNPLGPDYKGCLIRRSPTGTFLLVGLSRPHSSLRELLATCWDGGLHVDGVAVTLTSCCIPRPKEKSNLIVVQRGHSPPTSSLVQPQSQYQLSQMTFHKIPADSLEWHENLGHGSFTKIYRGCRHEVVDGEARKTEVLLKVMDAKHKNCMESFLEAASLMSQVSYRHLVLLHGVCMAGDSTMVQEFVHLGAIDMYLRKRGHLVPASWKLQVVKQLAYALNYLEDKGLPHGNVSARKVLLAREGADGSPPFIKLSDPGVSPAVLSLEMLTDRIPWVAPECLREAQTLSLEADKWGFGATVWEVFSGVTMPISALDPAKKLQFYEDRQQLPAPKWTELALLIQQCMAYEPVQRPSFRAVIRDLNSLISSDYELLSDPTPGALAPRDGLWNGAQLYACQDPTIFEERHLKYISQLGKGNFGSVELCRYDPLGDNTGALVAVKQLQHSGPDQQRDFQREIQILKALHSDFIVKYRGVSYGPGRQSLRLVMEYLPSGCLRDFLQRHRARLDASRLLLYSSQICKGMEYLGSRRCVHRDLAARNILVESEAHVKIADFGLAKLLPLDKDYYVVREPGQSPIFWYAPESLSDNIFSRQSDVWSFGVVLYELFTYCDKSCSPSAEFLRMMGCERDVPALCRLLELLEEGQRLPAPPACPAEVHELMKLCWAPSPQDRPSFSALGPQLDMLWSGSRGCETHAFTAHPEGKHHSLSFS
# [3] = biological target: T3, TXK (Homo sapiens, UniProt P42681); assay: TXK IC50 kinase inhibition assay
# T3 sequence (P42681 1-527): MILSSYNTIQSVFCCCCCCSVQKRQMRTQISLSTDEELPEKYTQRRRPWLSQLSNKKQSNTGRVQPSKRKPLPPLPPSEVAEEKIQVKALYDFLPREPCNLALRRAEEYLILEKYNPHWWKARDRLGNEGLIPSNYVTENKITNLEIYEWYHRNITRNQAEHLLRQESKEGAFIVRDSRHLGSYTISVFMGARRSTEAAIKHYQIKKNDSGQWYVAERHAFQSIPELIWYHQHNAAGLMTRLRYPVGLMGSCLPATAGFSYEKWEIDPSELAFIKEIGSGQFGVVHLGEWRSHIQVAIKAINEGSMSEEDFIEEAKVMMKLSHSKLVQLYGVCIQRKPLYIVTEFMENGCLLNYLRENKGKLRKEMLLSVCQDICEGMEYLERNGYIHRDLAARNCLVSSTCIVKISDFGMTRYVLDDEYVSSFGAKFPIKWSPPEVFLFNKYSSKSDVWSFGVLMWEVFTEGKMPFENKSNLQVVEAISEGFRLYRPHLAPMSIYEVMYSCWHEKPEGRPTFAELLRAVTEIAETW
# [4] = biological target: BTK (Homo sapiens, UniProt Q06187); assay: BTK IC50 kinase inhibition assay
# BTK, sequence (Q06187 whole entry): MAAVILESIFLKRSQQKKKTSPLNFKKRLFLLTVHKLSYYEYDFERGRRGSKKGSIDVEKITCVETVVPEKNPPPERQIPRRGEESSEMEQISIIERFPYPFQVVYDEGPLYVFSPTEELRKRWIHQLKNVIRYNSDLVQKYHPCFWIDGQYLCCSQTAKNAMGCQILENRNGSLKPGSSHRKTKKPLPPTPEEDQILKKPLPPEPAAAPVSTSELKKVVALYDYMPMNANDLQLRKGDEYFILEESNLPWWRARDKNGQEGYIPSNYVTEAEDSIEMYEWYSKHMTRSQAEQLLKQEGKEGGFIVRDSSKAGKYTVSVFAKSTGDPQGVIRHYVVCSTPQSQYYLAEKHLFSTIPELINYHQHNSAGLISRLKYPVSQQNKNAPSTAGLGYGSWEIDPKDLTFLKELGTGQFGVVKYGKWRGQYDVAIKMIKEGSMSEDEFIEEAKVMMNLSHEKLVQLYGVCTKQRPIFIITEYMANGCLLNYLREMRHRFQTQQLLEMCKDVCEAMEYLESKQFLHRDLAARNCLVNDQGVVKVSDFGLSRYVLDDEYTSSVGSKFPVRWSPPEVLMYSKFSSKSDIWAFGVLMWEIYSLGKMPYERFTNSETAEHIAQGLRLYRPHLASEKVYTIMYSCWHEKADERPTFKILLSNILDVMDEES
pIC50 [1],pIC50 [2],pIC50 [3],pIC50 [4],Structure (SMILES)
< 6.30,< 6.30,> 7.00,> 7.00,"C=CC(=O)N1CCC[C@@]1(C)Cn1nc(-c2ccc(Oc3ccccc3)cc2F)c2cncnc21 [Compound A52, (S)-1-(2-((3-(2-fluoro-4-phenoxyphenyl)-1H-pyrazolo[3,4-d]pyrimidin-1-yl)methyl)-2-methylpyrrolidin-1-yl)prop-2-en-1-one]"
6.30 to 7.00,6.30 to 7.00,> 7.00,> 7.00,"CN(C)CC#CC(=O)N1CC2(CC(n3nc(-c4ccc(Oc5ccccc5)cc4)c4cncnc43)C2)C1 [Compound A75, 4-(dimethylamino)-1-(6-(3-(4-phenoxyphenyl)-1H-pyrazolo[3,4-d]pyrimidin-1-yl)-2-azaspiro[3.3]heptan-2-yl)but-2-yn-1-one]"
< 6.30,< 6.30,> 7.00,> 7.00,"C=CC(=O)N1CC(F)(F)C[C@H]1Cn1nc(-c2ccc(Oc3ccccc3)cc2)c2cncnc21 [Compound A41, (S)-1-(4,4-difluoro-2-((3-(4-phenoxyphenyl)-1H-pyrazolo[3,4-d]pyrimidin-1-yl)methyl)pyrrolidin-1-yl)prop-2-en-1-one]"
< 6.30,< 6.30,< 6.30,< 6.30,"C=C(C)C(=O)N1CCC[C@@H](n2nc(-c3ccc(Oc4ccccc4)cc3)c3cncnc32)C1 [Compound A21, (R)-2-methyl-1-(3-(3-(4-phenoxyphenyl)-1H-pyrazolo[3,4-d]pyrimidin-1-yl)piperidin-1-yl)prop-2-en-1-one]"
< 6.30,< 6.30,6.30 to 7.00,> 7.00,"CC#CC(=O)N1CC[C@@H](c2nc(-c3ccc(Oc4ccccc4)cc3)c3cnccn23)C1 [Compound A32, (R)-1-(3-(1-(4-phenoxyphenyl)imidazo[1,5-a]pyrazin-3-yl)pyrrolidin-1-yl)but-2-yn-1-one]"
< 6.30,< 6.30,> 7.00,> 7.00,"C=CC(=O)N1CC(C)(C)C[C@H]1Cn1nc(-c2ccc(Oc3ccccc3)cc2)c2cncnc21 [Compound A49, (S)-1-(4,4-dimethyl-2-((3-(4-phenoxyphenyl)-1H-pyrazolo[3,4-d]pyrimidin-1-yl)methyl)pyrrolidin-1-yl)prop-2-en-1-one]"
< 6.30,< 6.30,< 6.30,6.30 to 7.00,"C=CC(=O)N[C@H]1C[C@H](n2nc(-c3ccc(Oc4ccccc4)cc3)c3cncnc32)C1 [Compound A55, N-((1r,3r)-3-(3-(4-phenoxyphenyl)-1H-pyrazolo[3,4-d]pyrimidin-1-yl)cyclobutyl)acrylamide]"
< 6.30,< 6.30,> 7.00,> 7.00,"C=CC(=O)N1CCC[C@@H](n2nc(-c3ccc(Oc4ccccc4)cc3)c3cnccc32)C1 [Compound A23, (R)-1-(3-(3-(4-phenoxyphenyl)-H-pyrazolo[4,3-c]pyridin-1-yl)piperidin-1-yl)prop-2-en-1-one]"
< 6.30,< 6.30,< 6.30,< 6.30,"CC#CC(=O)N1CCC[C@@H](n2nc(-c3ccc(Oc4ccccc4)cc3)c3cncnc32)C1 [Compound A16, (R)-1-(3-(3-(4-phenoxyphenyl)-1H-pyrazolo[3,4-d]pyrimidin-1-yl)piperidin-1-yl)but-2-yn-1-one]"
< 6.30,< 6.30,> 7.00,> 7.00,"C=CC(=O)N1CCC[C@@H](n2nc(-c3ccc(Oc4ccccc4F)cc3)c3cncnc32)C1 [Compound A40, (R)-1-(3-(3-(4-(2-fluorophenoxy)phenyl)-1H-pyrazolo[3,4-d]pyrimidin-1-yl)piperidin-1-yl)prop-2-en-1-one]"
< 6.30,< 6.30,6.30 to 7.00,> 7.00,"C=CC(=O)N1CC(Cn2nc(-c3ccc(Oc4ccccc4)cc3)c3cncnc32)C1 [Compound A35, 1-(3-((3-(4-phenoxyphenyl)-1H-pyrazolo[3,4-d]pyrimidin-1-yl)methyl)azetidin-1-yl)prop-2-en-1-one]"
< 6.30,< 6.30,> 7.00,> 7.00,"C=CC(=O)Nc1ccccc1Cn1nc(-c2ccc(Oc3ccccc3)cc2)c2cncnc21 [Compound A38, N-(2-((3-(4-phenoxyphenyl)-1H-pyrazolo[3,4-d]pyrimidin-1-yl)methyl)phenyl)acrylamide]"
< 6.30,< 6.30,> 7.00,> 7.00,"C=CC(=O)N1CCC[C@H]1Cn1nc(-c2ccc(Oc3cccc(C(F)F)c3)cc2)c2cncnc21 [Compound A47, (S)-1-(2-((3-(4-(3-(difluoromethyl)phenoxy)phenyl)-1H-pyrazolo[3,4-d]pyrimidin-1-yl)methyl)pyrrolidin-1-yl)prop-2-en-1-one]"
< 6.30,< 6.30,6.30 to 7.00,> 7.00,"C=CC(=O)N1CCCC[C@H]1Cn1nc(-c2ccc(Oc3ccccc3)cc2)c2cncnc21 [Compound A44, (S)-1-(2-((3-(4-phenoxyphenyl)-1H-pyrazolo[3,4-d]pyrimidin-1-yl)methyl)piperidin-1-yl)prop-2-en-1-one]"
< 6.30,< 6.30,> 7.00,> 7.00,"C=CC(=O)N1CC[C@@H](c2nc(-c3ccc(Oc4ccccc4)cc3)c3cnccn23)C1 [Compound A30, (R)-1-(3-(1-(4-phenoxyphenyl)imidazo[1,5-a]pyrazin-3-yl)pyrrolidin-1-yl)prop-2-en-1-one]"
< 6.30,< 6.30,> 7.00,> 7.00,"CN1CCN(CC#CC(=O)N2CC3(CC(n4nc(-c5ccc(Oc6ccccc6)cc5)c5cncnc54)C3)C2)CC1 [Compound A76, 4-(4-Methylpiperazin-1-yl)-1-(6-(3-(4-phenoxyphenyl)-1H-pyrazolo[3,4-d]pyrimidin-1-yl)-2-azaspiro[3.3]heptan-2-yl)but-2-yn-1-one]"
< 6.30,< 6.30,> 7.00,> 7.00,"C=CC(=O)N1CCC[C@@H](n2nc(-c3ccc(Oc4ccccc4)c(F)c3)c3cncnc32)C1 [Compound A3, (R)-1-(3-(3-(3-fluoro-4-phenoxyphenyl)-1H-pyrazolo[3,4-d]pyrimidin-1-yl)piperidin-1-yl)prop-2-en-1-one]"
< 6.30,< 6.30,> 7.00,> 7.00,"C=CC(=O)N1CCC[C@H]1Cn1nc(-c2ccc(Oc3ccccc3)cc2)c2cnccc21 [Compound A22, (S)-1-(2-((3-(4-phenoxyphenyl)-1H-pyrazolo[4,3-c]pyridin-1-yl)methyl)pyrrolidin-1-yl)prop-2-en-1-one]"
